Assay results taken from US9474757B2, “Methods for treating cancer using TOR kinase inhibitor combination therapy” (Signal Pharmaceuticals, LLC, priority 2013, dated 2016).
“Also recorded” adds a separate entry of the source.

System: doxorubicin-resistant Ramos cell xenografts
Assay: CIVO local injection, parental and doxorubicin-resistant RAMOS xenograft, cleaved caspase 3
Type: in vivo, Nu/Nu mice
Details: tumors harvested 24 hour post injection
Method: Anesthetized Nu/Nu mice harboring xenografted tumors were injected with multiple individual compounds or compound combinations, simultaneously, each into a distinct location of the tumor. Precise, controlled delivery of the compounds was evaluated for spatially defined and cellular changes around sites of tumor microinjection across xenograft models of DLBCL. Tumors were resected and injection quality was assessed by IVIS imaging of co-injected near-infrared tracking dye. Sections from representative regions down the z-axis of the tumor were prepared for staining with biomarkers of pathway inhibition and tumor response. Samples were then batch scanned in a Caliper Pannoramic slide scanner, resulting in high resolution images compatible with single cell analysis and subsequent data quantification via Presage's CIVO™ analyzer custom image analysis platform (for technology description, see R. Klinghoffer et al, AACR, 2014 and Presagebio.com).
Mice with parental or doxorubicin-resistant Ramos cell xenografts were injected locally with vehicle (4 μL), Compound 2 (13 μg in 4 μL injected), Compound 1 (39 μg in 4 μL injected), or Vincristine (1.47 μg in 4 μL (400 μM) injected). Tumors were harvested 24 hour post injection.

| Structure (SMILES) | sensitivity of doxorubicin resistant vs parental Ramos cells (cleaved caspase 3 vs distance from injection site) |
| --- | --- |
| CC[C@]1(O)C[C@H]2CN(CCc3c([nH]c4ccccc34)[C@@](C(=O)OC)(c3cc4c(cc3OC)N(C=O)[C@H]3[C@@](O)(C(=O)OC)[C@H](OC(C)=O)[C@]5(CC)C=CCN6CC[C@]43[C@@H]65)C2)C1 [Vincristine, reference compound] | resistant |
| CCN1C(=O)CNc2ncc(-c3ccc(-c4nc[nH]n4)nc3C)nc21 [Compound 2, 1-ethyl-7-(2-methyl-6-(1H-1,2,4-triazol-3-yl)pyridin-3-yl)-3,4-dihydropyrazino[2,3-b]pyrazin-2(1H)-one] | increased sensitivity; also recorded: more sensitive |
